Assays:
Cdk5-p25 = conditions: embryonal neuronal cells; cited from earlier work
Cdk5-p35 = conditions: embryonal neuronal cells; cited from earlier work
diabetic sciatic nerve [1] = assay: Anatomical axon regeneration after sciatic nerve crush (SNC) in streptozotocin-induced T1DM mice; assay type: in vivo; conditions: strep-induced T1DM mice, intrathecal injection 1 day prior and on the day of the SNC, 3 dpi
Experimental: (§1) To model type 1 diabetes mellitus (T1DM), male and female wild-type Ola received a single intraperitoneal injection of 100 mg/kg streptozotocin (strep) or vehicle (veh; 0.1 M citrate buffer, pH 4.5) at 4-6 weeks of age. The efficacy of the treatment was confirmed by assessing blood glucose levels 1 week after injection. Strep mice with over 250 mg/dl of blood glucose were considered diabetic. Thus, diabetes was induced 2 months before sciatic nerve crush.
All surgical procedures on mice adhered to respective animal care guidelines and were approved by the local authorities (LANUV Recklinghausen). For intrathecal AAV2.1 (CRMP2T514A-HA, GFP, tdTomato, and Cre-GFP: titer: ≥7·1012 vg/ml, Addgene), a 5 mm skin incision was made above the L4-L5 spines. The muscle tissue was carefully spread, and 2.5 µl of the viral solution was injected into the cerebrospinal fluid between the L4 and L5 spines using a Nanoject II injector (Drummond Scientific) with three consecutive 833 nl injections with a speed of 23 nl/s and 20 s intervals between injections. The skin was closed using 6-0 sutures. Transduction was performed 2 weeks before sciatic nerve crush (SNC). SNC was performed as described in Gobrecht et al., Nature Communications 5, 4561 (2014) and Gobrecht et al., (2016). In brief, animals were anesthetized by inhalation anaesthesia with 1.5% isoflurane in oxygen, and a skin incision of 5 mm was made above the gluteal region. […]
For assessment of anatomical regeneration, the sciatic nerves were isolated 3 days post-injury (dpi). […] Regeneration of sympathetic fibers was quantified with immunostaining against tyrosine hydroxylase (TH; Novus, 1:500; RRID:AB_10077691).
To verify the regeneration-stimulating effect of the peptide, axonal regeneration was determined in vivo. […] Anatomical regeneration was assessed 3 days post-injury (dpi).
To verify the regeneration-stimulating effect in vivo, axonal regeneration was determined. […] Anatomical regeneration was assessed 3 days post-injury (dpi).

CRMP2 = assay: Inhibitory CRMP2 phosphorylation (pCRMP2^T514) in DRG of diabetic mice, Western blot and immunostaining; assay type: in vivo
Experimental: as §1
The intrathecal application of anti-peptide against CDK5 (AP-CDK5) and P5 was performed with the above-described method to assess anatomical regeneration. […]
DRG (L3-L5) or 3 mm of the sciatic nerves proximal to the injury site from three mice per group were homogenized by sonication in 100 µl lysis buffer (20 mM Tris-HCl pH 7.5, 10 mM KCl, 250 mM sucrose, 10 mM NaF, 1mM DTT, 0.1 mM Na3VO4, 1% Triton X-100, 0.1% SDS, 1% protease inhibitors (Merck Millipore) and phosphatase inhibitors (Roche)). […] All antibodies were detected with anti-rabbit or anti-mouse IgG secondary antibodies conjugated to HRP (1:80,000; Sigma). […]
[…] Antibodies were detected with anti-rabbit, anti-goat, or anti-mouse secondary antibodies conjugated to Dylight-405,_Alexa-594, or Alexa-488.
Figure 1H illustrates the timeline of experiments. […] After SNC, SSI and von Frey tests were assessed before the day of SNC, and days 1, 4, 7, 9, 14, 21, 28, and 35 thereafter. […]

diabetic sciatic nerve [2] = assay: Static sciatic index (SSI), functional motor recovery after SNC in diabetic mice; assay type: in vivo
Experimental: (§2) The intrathecal application of anti-peptide against CDK5 (AP-CDK5) and P5 was performed with the above-described method to assess anatomical regeneration. Either 2 µl AP-CDK5 or P5 (each 4 mg/ml) or vehicle (DMSO) was injected the day before SNC and the day of SNC or the day of SNC and the day after. For analyses of functional recovery, AP-CDKS was injected daily at 400 µg/kg from the day of SNC until the mice were sacrificed. AP-CDKS and P5 (Genescript) were fused to a TAT-sequence for cell membrane penetration and had the following sequence: AP-CDKS: […] and (SEQ ID No. 3) P5: […] (SEQ ID No. 13).
Motor recovery after SNC was determined by calculating the SSI as described in Baptista AF et al., 2007, J Neurosci Methods 161, 259-264 and Gobrecht et al., Nature Communications 5, 1-10 (2014). […] Toe spreading on contralateral (C, left) and ipsilateral (I, right) sides relative to the SNC was assessed by measuring paw_length (PL) and the_distance between the first and fifth toe (FF). The SSI was then calculated using the previously described formula: SSI = 101.3((IFF-CFF)/CFF)-54.03((IPL-CPL)/CPL)-9.5 in as described in Baptista AF et al., 2007, J Neurosci Methods 161, 259-264.
Data represent mean SSI±SEM per experimental group. Statistical significances of intergroup differences were evaluated using two-way ANOVA followed by the Holm Sidak post hoc test. […]

diabetic sciatic nerve [3] = assay: von Frey test, functional sensory recovery after SNC in diabetic mice; assay type: in vivo; conditions: i.p. daily 400 µg/kg from the day of SNC, Figure 1M
Experimental: as §2
Sensory recovery after SNC was determined at the indicated time points after SNC with the von Frey filament test as described in Gobrecht et al., 2014 and Gobrecht et al., (2016). Tests were performed at the same time of day by the same experimenter. Mice were placed on an elevated metal grid (pore size: 2 mm) and allowed to acclimate for 15 min before testing. […] Statistical significances of intergroup differences were evaluated using two-way ANOVA followed by the Holm Sidak post hoc test.
Figure 1H illustrates the timeline of experiments. […] After SNC, SSI and von Frey tests were assessed before the day of SNC, and days 1, 4, 7, 9, 14, 21, 28, and 35 thereafter.

Row | Sequence | deregulated Cdk5-p25 activity (Cdk5-p25) | activity of endogenous Cdk5-p35 (Cdk5-p35) | anatomical regeneration of motor fibers (diabetic sciatic nerve [1]; ChAT staining) | anatomical regeneration of sensory fibers (diabetic sciatic nerve [1]; SCG10 staining) | anatomical regeneration of sympathetic fibers (diabetic sciatic nerve [1]; TH staining) | CRMP2 inactivation in neurons (pCRMP2^T514 immunostaining) (CRMP2; DRG (L6), strep-treated mice, i.p. injection, tissue harvested after completing functional recovery, Figure 1N) | CRMP2 inactivation in DRG neurons (pCRMP2^T514 Western blot) (CRMP2; L4-L6 DRG, strep T1DM mice, i.p. every day from the SNC until sacrifice, Figures 1I, 1J) | functional motor recovery assessed by static sciatic index (SSI) (diabetic sciatic nerve [2]; i.p. daily 400 µg/kg from the day of SNC, Figure 1L) | axon regeneration (pictures of the injured paw) (diabetic sciatic nerve [2]; i.p. daily from SNC, before and 1, 7, 14, 21, 28, 35 dpi, Figure 1K) | functional sensory recovery determined by the von Frey test (diabetic sciatic nerve [3])
1 | KEAFWDRCLSVINLMSSKMLQINA (listed as Homo sapiens) [p5] | inhibited | did not affect |  |  |  |  |  |  |  | 
2 | LVESCKEAFWDRCLSVINLMSSKMYARAARRAARR (REGION 1..35: note = Fusion peptide) [AP-CDK5] |  |  | accelerated | accelerated | accelerated | strongly reduced | strongly reduced | provide a functional effect | accelerated | provide a functional effect

Source: patent EP4494649A1, “PEPTIDES FOR USE IN THE TREATMENT OF AXONAL DAMAGE IN DIABETES” (Universität zu Köln, priority 2023, dated 2025)
